{"source": "patent US20210045385A1", "about": "“PYRIDAZINONE-SUBSTITUTED KETOXIMES AS HERBICIDES” (FMC Corporation, priority 2018, published 2021)", "format_in_all_cases": "in vivo", "key": {"[1]": {"tested_on": "pigweed (Amaranthus retroflexus)", "test": "Test C preemergence, visual plant response rating", "conditions": "1000 g ai/ha", "text": "(§1) Seeds of plant species selected from barnyardgrass (Echinochloa crus-galli), kochia (Bassia scoparia), ragweed (common ragweed, Ambrosia artemisiifolia), Italian ryegrass (Lolium mutiflorum), foxtail, giant (giant foxtail, Setaria faberi), foxtail, green (green foxtail, Setaria viridis), and pigweed (Amaranthus retroflexus) were planted into a blend of loam soil and sand and treated preemergence with a directed soil spray using test chemicals formulated in anon-phytotoxic solvent mixture which included a surfactant.\n(§2) At the same time, plants selected from these weed species and also wheat (Triticum aestivum), corn (Zea mays), blackgrass (Alopecurus myosuroides), and galium (catchweed bedstraw, Galium aparine) were planted in pots containing the same blend of loam soil and sand and treated with post emergence applications of test chemicals formulated in the same manner. Plants ranged in height from 2 to 10 cm and were in the one- to two-leaf stage for the postemergence treatment. Treated plants and untreated controls were maintained in a greenhouse for approximately 10 d, after which time all treated plants were compared to untreated controls and visually evaluated for injury. Plant response ratings, summarized in Table C, are based on a 0 to 100 scale where 0 is no effect and 100 is complete control. A dash (-)response means no test result."}, "[2]": {"tested_on": "foxtail, giant (giant foxtail, Setaria faberi)", "test": "Test C preemergence, visual plant response rating", "conditions": "1000 g ai/ha", "text": "as §1, §2"}, "[3]": {"tested_on": "kochia (Bassia scoparia)", "test": "Test C preemergence, visual plant response rating", "conditions": "1000 g ai/ha", "text": "as §1, §2"}, "[4]": {"tested_on": "barnyardgrass (Echinochloa crus-galli)", "test": "Test C preemergence, visual plant response rating", "conditions": "1000 g ai/ha", "text": "as §1, §2"}, "[5]": {"tested_on": "ragweed (common ragweed, Ambrosia artemisiifolia)", "test": "Test C preemergence, visual plant response rating", "conditions": "1000 g ai/ha", "text": "as §1, §2"}, "[6]": {"tested_on": "Italian ryegrass (Lolium mutiflorum)", "test": "Test C preemergence, visual plant response rating", "conditions": "1000 g ai/ha", "text": "as §1, §2"}, "[7]": {"tested_on": "wheat (Triticum aestivum)", "test": "Test C postemergence, visual plant response rating", "conditions": "Test C, postemergence, 1000 g ai/ha", "text": "as §1, §2"}, "[8]": {"tested_on": "corn (Zea mays)", "test": "Test C postemergence, visual plant response rating", "conditions": "Test C, postemergence, 1000 g ai/ha", "text": "as §1, §2"}, "[9]": {"tested_on": "pigweed (Amaranthus retroflexus)", "test": "Test C postemergence, visual plant response rating", "conditions": "Test C, postemergence, 1000 g ai/ha", "text": "as §1, §2"}, "[10]": {"tested_on": "foxtail, giant (giant foxtail, Setaria faberi)", "test": "Test C postemergence, visual plant response rating", "conditions": "Test C, postemergence, 1000 g ai/ha", "text": "as §1, §2"}, "[11]": {"tested_on": "galium (catchweed bedstraw, Galium aparine)", "test": "Test C postemergence, visual plant response rating", "conditions": "Test C, postemergence, 1000 g ai/ha", "text": "as §1, §2"}, "[12]": {"tested_on": "kochia (Bassia scoparia)", "test": "Test C postemergence, visual plant response rating", "conditions": "Test C, postemergence, 1000 g ai/ha", "text": "as §1, §2"}, "[13]": {"tested_on": "barnyardgrass (Echinochloa crus-galli)", "test": "Test C postemergence, visual plant response rating", "conditions": "Test C, postemergence, 1000 g ai/ha", "text": "as §1, §2"}, "[14]": {"tested_on": "blackgrass (Alopecurus myosuroides)", "test": "Test C postemergence, visual plant response rating", "conditions": "Test C, postemergence, 1000 g ai/ha", "text": "as §1, §2"}, "[15]": {"tested_on": "ragweed (common ragweed, Ambrosia artemisiifolia)", "test": "Test C postemergence, visual plant response rating", "conditions": "Test C, postemergence, 1000 g ai/ha", "text": "as §1, §2"}, "[16]": {"tested_on": "Italian ryegrass (Lolium mutiflorum)", "test": "Test C postemergence, visual plant response rating", "conditions": "Test C, postemergence, 1000 g ai/ha", "text": "as §1, §2"}}}
{"smiles": "CC(C)O/N=C(/c1c(O)cnn(C)c1=O)c1cccc2ccccc12", "note": "[Compound 223]", "values": [{"measurement": "Pigweed plant response rating (0 to 100 scale)", "setting": "[1]", "result": 100}, {"measurement": "Foxtail, Giant plant response rating (0 to 100 scale)", "setting": "[2]", "result": 0}, {"measurement": "Kochia plant response rating (0 to 100 scale)", "setting": "[3]", "result": 0}, {"measurement": "Barnyardgrass plant response rating (0 to 100 scale)", "setting": "[4]", "result": 0}, {"measurement": "Ragweed plant response rating (0 to 100 scale)", "setting": "[5]", "result": 20}, {"measurement": "Ryegrass, Italian plant response rating (0 to 100 scale)", "setting": "[6]", "result": 0}, {"measurement": "Wheat plant response rating (0 to 100 scale)", "setting": "[7]", "result": 0}, {"measurement": "Corn plant response rating (0 to 100 scale)", "setting": "[8]", "result": 0}, {"measurement": "Pigweed plant response rating (0 to 100 scale)", "setting": "[9]", "result": 40}, {"measurement": "Foxtail, Giant plant response rating (0 to 100 scale)", "setting": "[10]", "result": 30}, {"measurement": "Galium plant response rating (0 to 100 scale)", "setting": "[11]", "result": 90}, {"measurement": "Kochia plant response rating (0 to 100 scale)", "setting": "[12]", "result": 0}, {"measurement": "Barnyardgrass plant response rating (0 to 100 scale)", "setting": "[13]", "result": 20}, {"measurement": "Blackgrass plant response rating (0 to 100 scale)", "setting": "[14]", "result": 0}, {"measurement": "Ragweed plant response rating (0 to 100 scale)", "setting": "[15]", "result": 50}, {"measurement": "Ryegrass, Italian plant response rating (0 to 100 scale)", "setting": "[16]", "result": 0}]}
{"smiles": "CCO/N=C(/c1c(O)cnn(C)c1=O)c1cccc2ccccc12", "note": "[Compound 225]", "values": [{"measurement": "Pigweed plant response rating (0 to 100 scale)", "setting": "[1]", "result": 80}, {"measurement": "Foxtail, Giant plant response rating (0 to 100 scale)", "setting": "[2]", "result": 60}, {"measurement": "Kochia plant response rating (0 to 100 scale)", "setting": "[3]", "result": 10}, {"measurement": "Barnyardgrass plant response rating (0 to 100 scale)", "setting": "[4]", "result": 0}, {"measurement": "Ragweed plant response rating (0 to 100 scale)", "setting": "[5]", "result": 40}, {"measurement": "Ryegrass, Italian plant response rating (0 to 100 scale)", "setting": "[6]", "result": 0}, {"measurement": "Wheat plant response rating (0 to 100 scale)", "setting": "[7]", "result": 0}, {"measurement": "Corn plant response rating (0 to 100 scale)", "setting": "[8]", "result": 0}, {"measurement": "Pigweed plant response rating (0 to 100 scale)", "setting": "[9]", "result": 60}, {"measurement": "Foxtail, Giant plant response rating (0 to 100 scale)", "setting": "[10]", "result": 20}, {"measurement": "Galium plant response rating (0 to 100 scale)", "setting": "[11]", "result": 90}, {"measurement": "Kochia plant response rating (0 to 100 scale)", "setting": "[12]", "result": 10}, {"measurement": "Barnyardgrass plant response rating (0 to 100 scale)", "setting": "[13]", "result": 10}, {"measurement": "Blackgrass plant response rating (0 to 100 scale)", "setting": "[14]", "result": 20}, {"measurement": "Ragweed plant response rating (0 to 100 scale)", "setting": "[15]", "result": 70}, {"measurement": "Ryegrass, Italian plant response rating (0 to 100 scale)", "setting": "[16]", "result": 0}]}
{"smiles": "CO/N=C(/c1c(O)cnn(C)c1=O)c1cccc2ccccc12", "note": "[Compound 237]", "values": [{"measurement": "Pigweed plant response rating (0 to 100 scale)", "setting": "[1]", "result": 90}, {"measurement": "Foxtail, Giant plant response rating (0 to 100 scale)", "setting": "[2]", "result": 60}, {"measurement": "Kochia plant response rating (0 to 100 scale)", "setting": "[3]", "result": 30}, {"measurement": "Barnyardgrass plant response rating (0 to 100 scale)", "setting": "[4]", "result": 0}, {"measurement": "Ragweed plant response rating (0 to 100 scale)", "setting": "[5]", "result": 20}, {"measurement": "Ryegrass, Italian plant response rating (0 to 100 scale)", "setting": "[6]", "result": 0}, {"measurement": "Wheat plant response rating (0 to 100 scale)", "setting": "[7]", "result": 0}, {"measurement": "Corn plant response rating (0 to 100 scale)", "setting": "[8]", "result": 0}, {"measurement": "Pigweed plant response rating (0 to 100 scale)", "setting": "[9]", "result": 90}, {"measurement": "Foxtail, Giant plant response rating (0 to 100 scale)", "setting": "[10]", "result": 0}, {"measurement": "Galium plant response rating (0 to 100 scale)", "setting": "[11]", "result": 100}, {"measurement": "Kochia plant response rating (0 to 100 scale)", "setting": "[12]", "result": 80}, {"measurement": "Barnyardgrass plant response rating (0 to 100 scale)", "setting": "[13]", "result": 0}, {"measurement": "Blackgrass plant response rating (0 to 100 scale)", "setting": "[14]", "result": 10}, {"measurement": "Ragweed plant response rating (0 to 100 scale)", "setting": "[15]", "result": 30}, {"measurement": "Ryegrass, Italian plant response rating (0 to 100 scale)", "setting": "[16]", "result": 10}]}
